From patent US20100190846A1, “MICROBICIDAL AGENT AND MICROBICIDAL COMPOSITION” (priority 2006, published 2010)
In brackets after ≈: the same amount, converted by molar mass.

Key:
Experiment in all cases: Agar dilution method microbicidal test
Type in all cases: cell-based
Candida sp. = tested on: Candida sp. On Growth on agar plate: key: +: grew; −: did not grow.
Experimental: (§1) As microbicidal test method for trans-p-coumaric acid, 3-hydroxypyridine, p-hydroxybenzaldehyde and vanillin, the agar dilution method was employed.
(§2) In agar dilution method, a solution in which a sample is dissolved is serially diluted several times, and each of the diluted sample solutions is mixed with agar medium to prepare plate agars having various sample concentration. Then bacteria is inoculated onto the plate agars. In cases where the sample has a microbicidal activity, the growth of the bacteria on the plates can be inhibited. The lowest concentration which can inhibit the growth of the bacteria is referred to as Minimum Inhibitory Concentration (MIC), thereby judging the degree of a microbicidal activity of the sample.
(§3) First, 400 mg of sample was dissolved in 1 mL of DMSO to prepare 400 mg/mL sample solution. Then 0.5 mL of this 400 mg/mL sample solution was diluted 2-fold to prepare 200 mg/mL sample solution. In the same manner, sample solutions of 100 mg/mL, 50.0 mg/mL, and 25.0 mg/mL were prepared. In addition, 300 mg/mL sample solution was prepared. Thereafter, 0.2 mL of these sample solutions each was mixed with 19.8 mL of BHI (Brain Heart Infusion Agar, Becton Dickinson, MD) medium, thereby preparing agar plates having the sample concentration of 4.0 mg/mL, 3.0 mg/mL, 2.0 mg/mL, 1.0 mg/mL, 0.5 mg/mL, and 0.25 mg/mL in dishes. […] Sterilized water was used for dissolving catechin, because catechin was insoluble in DMSO.
(§4) As test bacteria, 13 kinds of bacteria, i.e., Streptococcus pneumoniae, Streptococcus pyogenes, Enterococcus faecalis, Staphylococcus aureus, Escherichia coli, Salmonella sp., Yersinia enterocolitica, Vibrio parahaemolyticus, Pseudomonas aeruginosa, Bacillus cereus, Bacillus subtilis MB-32, Bacillus subtilis ATCC6633, and Candida sp., were used. These bacteria each was mixed with 2 mL of sterilized MHB^R liquid medium (Mueller Hinton Broth^R, Becton Dickinson, MD) to prepare bacterial suspension having turbidity 1 (bacterial concentration 10^8/mL). Previously, small test tubes were set into each cell of a grating and sterilized, and 1 mL of 13 bacterial suspensions were added into the small test tubes set in the grating, respectively. By using a microplanter (SAKUMA, model: MIT-P), 10 μL aliquot was collected from each test tube set in the grating and transferred to other test tube, and the transferred bacterial suspensions were diluted 100-fold (bacterial concentration 10^6/mL).
(§5) By using the microplanter, 10 μL (bacterial number […]) of this bacterial suspension was inoculated onto the plates containing the sample solution of various concentrations. The plates were incubated for 18 hours in an incubator at 37° C., and then a microbicidal activity of each compound was assessed.

Streptococcus pneumoniae = tested on: Streptococcus pneumoniae; on Growth on agar plate: key: +: grew; −: did not grow
Experimental: as §1, §2, §3, §4, §5

Streptococcus pyogenes = tested on: Streptococcus pyogenes; on Growth on agar plate: key: +: grew; −: did not grow
Experimental: as §1, §2, §3, §4, §5

Pseudomonas aeruginosa = tested on: Pseudomonas aeruginosa; on Growth on agar plate: key: +: grew; −: did not grow
Experimental: as §1, §2, §3, §4, §5

Yersinia enterocolitica = tested on: Yersinia enterocolitica; on Growth on agar plate: key: +: grew; −: did not grow
Experimental: as §1, §2, §3, §4, §5

Bacillus cereus = tested on: Bacillus cereus; further: key: +: grew; −: did not grow
Experimental: as §1, §2, §3, §4, §5

[1] = tested on: Bacillus subtilis ATCC6633; conditions: Bacillus subtilis ATCC 6633; further: key: +: grew; −: did not grow
Experimental: as §1, §2, §3, §4, §5

Enterococcus faecalis = tested on: Enterococcus faecalis; further: key: +: grew; −: did not grow
Experimental: as §1, §2, §3, §4, §5

Vibrio parahaemolyticus = tested on: Vibrio parahaemolyticus; on Growth on agar plate: key: +: grew; −: did not grow
Experimental: as §1, §2, §3, §4, §5

Bacillus subtilis MB-32 = tested on: Bacillus subtilis MB-32; further: key: +: grew; −: did not grow
Experimental: as §1, §2, §3, §4, §5

Escherichia coli = tested on: Escherichia coli; further: key: +: grew; −: did not grow
Experimental: as §1, §2, §3, §4, §5

Salmonella sp. = tested on: Salmonella sp. Further: key: +: grew; −: did not grow.
Experimental: as §1, §2, §3, §4, §5

Staphylococcus aureus = tested on: Staphylococcus aureus; on Growth on agar plate: key: +: grew; −: did not grow
Experimental: as §1, §2, §3, §4, §5

[2] = BHI agar, 37° C., 18 hours, read-out: MIC

Oc1cccnc1 [3-Hydroxypyridine, 3-hydroxypyridine] was tested, and the “activity (in words)” value (Candida sp.) was “had an activity”, the “Growth on agar plate” value (Candida sp.; 0.25 mg/mL) was “+” and the “Growth on agar plate” value (Candida sp.; 0.5 mg/mL) was “+”. For the same molecule, the “Growth on agar plate” value (Candida sp.; 1.0 mg/mL) was “+”, the “Growth on agar plate” value (Candida sp.; 2.0 mg/mL) was “+” and the “Growth on agar plate” value (Candida sp.; 3.0 mg/mL) was “+”. For the same molecule, the “Growth on agar plate” value (Candida sp.; 4.0 mg/mL) was “−”, the MIC (Candida sp.; [2]) was 4000 µg/mL (≈ 42.1 mM) and the “activity (in words)” value (Streptococcus pneumoniae) was “had an activity”. For the same molecule, the “Growth on agar plate” value (Streptococcus pneumoniae; 0.25 mg/mL) was “+”, the “Growth on agar plate” value (Streptococcus pneumoniae; 0.5 mg/mL) was “+” and the “Growth on agar plate” value (Streptococcus pneumoniae; 1.0 mg/mL) was “+”. The “Growth on agar plate” value (Streptococcus pneumoniae; 2.0 mg/mL) was “+”, the “Growth on agar plate” value (Streptococcus pneumoniae; 3.0 mg/mL) was “+” and the “Growth on agar plate” value (Streptococcus pneumoniae; 4.0 mg/mL) was “−”. The MIC (Streptococcus pneumoniae; [2]) was 4000 µg/mL (≈ 42.1 mM), the “activity (in words)” value (Streptococcus pyogenes) was “had an activity” and the “Growth on agar plate” value (Streptococcus pyogenes; 0.25 mg/mL) was “+”. For the same molecule, the “Growth on agar plate” value (Streptococcus pyogenes; 0.5 mg/mL) was “+”, the “Growth on agar plate” value (Streptococcus pyogenes; 1.0 mg/mL) was “+” and the “Growth on agar plate” value (Streptococcus pyogenes; 2.0 mg/mL) was “+”. The “Growth on agar plate” value (Streptococcus pyogenes; 3.0 mg/mL) was “+”, the “Growth on agar plate” value (Streptococcus pyogenes; 4.0 mg/mL) was “−” and the MIC (Streptococcus pyogenes; [2]) was 4000 µg/mL (≈ 42.1 mM). For the same molecule, the “activity (in words)” value (Pseudomonas aeruginosa) was “had an activity”, the “Growth on agar plate” value (Pseudomonas aeruginosa; 0.25 mg/mL) was “+” and the “Growth on agar plate” value (Pseudomonas aeruginosa; 0.5 mg/mL) was “+”. The “Growth on agar plate” value (Pseudomonas aeruginosa; 1.0 mg/mL) was “+”, the “Growth on agar plate” value (Pseudomonas aeruginosa; 2.0 mg/mL) was “+” and the “Growth on agar plate” value (Pseudomonas aeruginosa; 3.0 mg/mL) was “+”. For the same molecule, the “Growth on agar plate” value (Pseudomonas aeruginosa; 4.0 mg/mL) was “−”, the MIC (Pseudomonas aeruginosa; [2]) was 4000 µg/mL (≈ 42.1 mM) and the “activity (in words)” value (Yersinia enterocolitica) was “had an activity”. The “Growth on agar plate” value (Yersinia enterocolitica; 0.25 mg/mL) was “+”, the “Growth on agar plate” value (Yersinia enterocolitica; 0.5 mg/mL) was “+” and the “Growth on agar plate” value (Yersinia enterocolitica; 1.0 mg/mL) was “+”. For the same molecule, the “Growth on agar plate” value (Yersinia enterocolitica; 2.0 mg/mL) was “+”, the “Growth on agar plate” value (Yersinia enterocolitica; 3.0 mg/mL) was “+” and the “Growth on agar plate” value (Yersinia enterocolitica; 4.0 mg/mL) was “−”. For the same molecule, the MIC (Yersinia enterocolitica; [2]) was 4000 µg/mL (≈ 42.1 mM), the “Growth on agar plate” value (Bacillus cereus; 0.25 mg/mL) was “+” and the “Growth on agar plate” value (Bacillus cereus; 0.5 mg/mL) was “+”. The “Growth on agar plate” value (Bacillus cereus; 1.0 mg/mL) was “+”, the “Growth on agar plate” value (Bacillus cereus; 2.0 mg/mL) was “+” and the “Growth on agar plate” value (Bacillus cereus; 3.0 mg/mL) was “+”. For the same molecule, the “Growth on agar plate” value (Bacillus cereus; 4.0 mg/mL) was “+”, the “Growth on agar plate” value ([1]; 0.25 mg/mL) was “+” and the “Growth on agar plate” value ([1]; 0.5 mg/mL) was “+”. The “Growth on agar plate” value ([1]; 1.0 mg/mL) was “+”, the “Growth on agar plate” value ([1]; 2.0 mg/mL) was “+” and the “Growth on agar plate” value ([1]; 3.0 mg/mL) was “+”. For the same molecule, the “Growth on agar plate” value ([1]; 4.0 mg/mL) was “+”, the “Growth on agar plate” value (Enterococcus faecalis; 0.25 mg/mL) was “+” and the “Growth on agar plate” value (Enterococcus faecalis; 0.5 mg/mL) was “+”. The “Growth on agar plate” value (Enterococcus faecalis; 1.0 mg/mL) was “+”, the “Growth on agar plate” value (Enterococcus faecalis; 2.0 mg/mL) was “+” and the “Growth on agar plate” value (Enterococcus faecalis; 3.0 mg/mL) was “+”. For the same molecule, the “Growth on agar plate” value (Enterococcus faecalis; 4.0 mg/mL) was “+”, the “Growth on agar plate” value (Vibrio parahaemolyticus; 0.25 mg/mL) was “+” and the “Growth on agar plate” value (Vibrio parahaemolyticus; 0.5 mg/mL) was “+”. For the same molecule, the “Growth on agar plate” value (Vibrio parahaemolyticus; 1.0 mg/mL) was “+”, the “Growth on agar plate” value (Vibrio parahaemolyticus; 2.0 mg/mL) was “+” and the “Growth on agar plate” value (Vibrio parahaemolyticus; 3.0 mg/mL) was “+”. The “Growth on agar plate” value (Vibrio parahaemolyticus; 4.0 mg/mL) was “−”, the MIC (Vibrio parahaemolyticus; [2]) was 4000 µg/mL (≈ 42.1 mM) and the “Growth on agar plate” value (Bacillus subtilis MB-32; 0.25 mg/mL) was “+”. The “Growth on agar plate” value (Bacillus subtilis MB-32; 0.5 mg/mL) was “+”, the “Growth on agar plate” value (Bacillus subtilis MB-32; 1.0 mg/mL) was “+” and the “Growth on agar plate” value (Bacillus subtilis MB-32; 2.0 mg/mL) was “+”. The “Growth on agar plate” value (Bacillus subtilis MB-32; 3.0 mg/mL) was “+”, the “Growth on agar plate” value (Bacillus subtilis MB-32; 4.0 mg/mL) was “+” and the “Growth on agar plate” value (Escherichia coli; 0.25 mg/mL) was “+”. The “Growth on agar plate” value (Escherichia coli; 0.5 mg/mL) was “+”, the “Growth on agar plate” value (Escherichia coli; 1.0 mg/mL) was “+” and the “Growth on agar plate” value (Escherichia coli; 2.0 mg/mL) was “+”. For the same molecule, the “Growth on agar plate” value (Escherichia coli; 3.0 mg/mL) was “+”, the “Growth on agar plate” value (Escherichia coli; 4.0 mg/mL) was “+” and the “Growth on agar plate” value (Salmonella sp.; 0.25 mg/mL) was “+”. The “Growth on agar plate” value (Salmonella sp.; 0.5 mg/mL) was “+”, the “Growth on agar plate” value (Salmonella sp.; 1.0 mg/mL) was “+” and the “Growth on agar plate” value (Salmonella sp.; 2.0 mg/mL) was “+”. The “Growth on agar plate” value (Salmonella sp.; 3.0 mg/mL) was “+”, the “Growth on agar plate” value (Salmonella sp.; 4.0 mg/mL) was “+” and the “activity (in words)” value (Staphylococcus aureus) was “had an activity”. The “Growth on agar plate” value (Staphylococcus aureus; 0.25 mg/mL) was “+”, the “Growth on agar plate” value (Staphylococcus aureus; 0.5 mg/mL) was “+” and the “Growth on agar plate” value (Staphylococcus aureus; 1.0 mg/mL) was “+”. For the same molecule, the “Growth on agar plate” value (Staphylococcus aureus; 2.0 mg/mL) was “+”, the “Growth on agar plate” value (Staphylococcus aureus; 3.0 mg/mL) was “+” and the “Growth on agar plate” value (Staphylococcus aureus; 4.0 mg/mL) was “−”. For the same molecule, the MIC (Staphylococcus aureus; [2]) was 4000 µg/mL (≈ 42.1 mM).
